Measured values from patent US9952300B2, “Dynamic contrast enhanced MRI method and agents for the assessment of the macromolecular transport within pathologic tissues” (BRACCO IMAGING S.P.A., priority 2012, dated 2018).

System: WM1552/5 melanoma xenografts
Assay: DCE-MRI with B22956/1 in WM1552/5 melanoma xenografts 24 h after PTX (Example 4)
Format: in vivo, NCr-nu/nu mice
Details: WM1552/5 tumor rim and core, 24 h after PTX 20 mg/kg i.v.
Excerpt: Indeed, the potential of non-covalent protein binding contrast agents according the invention to provide in vivo suitable estimates of the effect promoted by a therapeutic agent such as, for instance, an EPR-enhancing agent, i.e. an agent devoted to enhance the uptake of the co-administered macromolecular drug in the tumor area, has been investigated by means of Dynamic Contrast Enhanced MRI tests performed in vivo with B22956/1, used as representative agent according to the invention, on melanoma cancer model xenografts in nude mice treated with vehicle or Paclitaxel (PTX). […] Jain, R. K. & Stylianopoulos, T. Nat. Rev. Clin. Oncol. 2010, 7: 653-664).
Six- to eight-week-old female NCr-nu/nu mice, obtained from Harlan (Correzzana, Italy) were maintained under specific pathogen-free conditions and handled using aseptic procedures throughout the whole study. […]
PTX- and vehicle-treated nude mice bearing WM1552/5 melanoma xenografts (N=4 mice per group) were analyzed by DCE-MRI 24 h after PTX administration. […] Pre-contrast T1 values in tumors were measured using a multislice variable flip-angle FLASH. […]
Differences in the kinetics of distribution of the contrast agent (DCE-MRI) were analyzed by Mann Whitney U test.

CC(=O)O[C@H]1C(=O)[C@@]2(C)[C@H]([C@H](OC(=O)c3ccccc3)[C@]3(O)C[C@H](OC(=O)[C@H](O)[C@@H](NC(=O)c4ccccc4)c4ccccc4)C(C)=C1C3(C)C)[C@]1(OC(C)=O)CO[C@@H]1C[C@@H]2O [PTX, Paclitaxel]
K^trans measured with B22956/1, pre-treated versus vehicle: statistically significant increase | fractional plasma volume fPV (%) measured with B22956/1, pre-treated versus vehicle: statistically significant increase
